Laboratory results: US5852007A, “Cysteine and serine protease inhibitors containing D-amino acid at the P2 position, methods of making same, and methods of using same” (priority 1997, dated 1998)
Like-named read-outs stand apart in the source and are kept apart here. Square brackets hold non-standard residues; d marks the D form. Peptide text beside a SMILES is read from it. * marks the point of attachment. Abu = CC[C@H](N)C(=O)O; Bn = c1ccc(C*)cc1; Ms = CS(=O)(=O)*

What was measured:
Type in all cases: biochemical
[1] = biological target: T1, Recombinant human calpain I (Homo sapiens, UniProt P07384); experiment: Inhibition of calpain I activity
T1 construct: made in house
T1 sequence (P07384 1-714): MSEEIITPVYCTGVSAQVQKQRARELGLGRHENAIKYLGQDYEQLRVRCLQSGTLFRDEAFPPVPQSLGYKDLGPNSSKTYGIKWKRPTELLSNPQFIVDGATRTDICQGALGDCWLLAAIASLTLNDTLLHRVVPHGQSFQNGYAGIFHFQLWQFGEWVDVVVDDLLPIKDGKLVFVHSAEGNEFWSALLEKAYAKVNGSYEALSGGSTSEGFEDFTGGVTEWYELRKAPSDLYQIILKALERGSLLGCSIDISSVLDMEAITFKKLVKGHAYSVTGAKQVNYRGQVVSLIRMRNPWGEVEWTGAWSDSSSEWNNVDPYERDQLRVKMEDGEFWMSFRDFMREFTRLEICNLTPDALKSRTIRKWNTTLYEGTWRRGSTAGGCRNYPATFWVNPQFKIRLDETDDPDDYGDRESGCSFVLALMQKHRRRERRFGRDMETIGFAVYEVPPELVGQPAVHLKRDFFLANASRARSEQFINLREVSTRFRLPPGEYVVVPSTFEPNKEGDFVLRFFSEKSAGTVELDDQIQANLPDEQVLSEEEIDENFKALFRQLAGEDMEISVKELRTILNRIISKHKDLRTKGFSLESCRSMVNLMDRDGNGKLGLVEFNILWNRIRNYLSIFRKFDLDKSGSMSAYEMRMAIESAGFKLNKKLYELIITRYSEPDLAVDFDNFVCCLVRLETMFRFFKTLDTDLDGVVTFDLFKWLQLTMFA
Protocol: To evaluate inhibitory activity, stock solutions (40 times concentrated) of exemplary compounds of the invention were prepared in 100% anhydrous DMSO and 5 μL of each inhibitor preparation were aliquoted into each of three wells of a 96-well plate. Recombinant human calpain I, prepared by the method of Meyer et al. (Biochem. […] To start the reaction, 20 μL of 50 mM CaCl2 in assay buffer was added to all wells of the plate, excepting three, which were used as background signal baseline controls. Substrate hydrolysis was monitored every 5 minutes for a total of 30 minutes. […] Inhibition of calpain I activity was calculated as the percent decrease in the rate of substrate hydrolysis in the presence of inhibitor (VI) relative to the rate in its absence (VO). Comparison between VO and VI was made within the linear range for substrate hydrolysis. For screening, compounds were tested at 10, 1.0, and 0.1 μM. […] The results were plotted as % inhibition versus log inhibitor concentration and the IC50 was calculated from linear regression of the data. Apparent second order rate constants were determined from analysis of reaction progress curves under pseudo-first order conditions. Each determination represents the means of three or more independent single cuvette analyses continually monitored via a Perkin-Elmer LS50B spectrofluorimeter. The rate of inhibition of hydrolysis was obtained by fitting the curve to the exponential equation (1): […]

cathepsin B = biological target: T2, cathepsin B (Homo sapiens, UniProt P07858); experiment: Inhibition of cathepsin B; details: for inhibition at 1 µM: read-out: Cat B % I @ 1 uM; for IC50: read-out: Cat B IC50
T2 construct: purchased Calbiochem 219364
Protocol: (§1) Additionally,the order of reagents added to the plate was altered because both enzymes are constitutively active. Following inhibitor addition to the plates, appropriate 2× concentrated stock dilutions of the enzyme preparations were made in assay buffer and 100 μl added to each well. The assay was initiated by addition of 100 μl of 2× concentrated stock dilution of substrate in assay buffer.

cathepsin L = biological target: T3, cathepsin L (Homo sapiens, UniProt P07711); experiment: Inhibition of cathepsin L; details: for inhibition at 1 µM / Cat L % I @ 1 uM: Table III; for inhibition at 1 µM: read-out: Cat L % I @ 1 uM; for IC50: Table II, read-out: Cat L IC50
T3 construct: purchased Calbiochem 219402
T3 sequence (P07711 114-288 limits assumed): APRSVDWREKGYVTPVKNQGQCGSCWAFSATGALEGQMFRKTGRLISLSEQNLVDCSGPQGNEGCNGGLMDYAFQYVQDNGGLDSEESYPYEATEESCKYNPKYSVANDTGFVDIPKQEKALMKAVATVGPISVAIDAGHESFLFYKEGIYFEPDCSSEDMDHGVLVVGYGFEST
T3 sequence (P07711 292-333 limits assumed): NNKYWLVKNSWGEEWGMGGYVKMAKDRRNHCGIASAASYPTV
Protocol: as §1

thrombin = biological target: T4, thrombin (Homo sapiens, UniProt P00734); experiment: Inhibition of thrombin; details: 10 uM; for inhibition at 10 µM: read-out: Thrombin % I @ 10 uM
T4 construct: purchased Sigma Chem. Co. T-7009

α-chymotrypsin = biological target: T5, α-chymotrypsin (Bos taurus, UniProt P00766); experiment: Inhibition of α-chymotrypsin; details: 10 uM; for inhibition at 10 µM: read-out: Chymotrypsin % I @ 10 uM
T5 construct: purchased Sigma Chem. Co. C-3142
Protocol: Additionally, because α-chymotrypsin is not a calcium sensitive enzyme and is constitutively active, following addition of inhibitor stocks to the 96 well plates, 100 μl of a 2-fold concentrated stock of enzyme in dilution buffer was first added and the reaction started by addition of 100 μl of a 2-fold concentrated stock of substrate in assay buffer. Substrate hydrolysis was monitored every 5 minutes up to 30 minutes using a Fluoroskan II ([…]).

IC50 ([1]; Table III)	inhibition at 1 µM (cathepsin L)	Thrombin % I @ 10 uM (thrombin; Table III)	Chymotrypsin % I @ 10 uM (α-chymotrypsin; Table III)	inhibition at 0.1 µM ([1]; Table III)	inhibition at 1 µM (cathepsin B; Table III)	IC50 ([1]; Table II)	IC50 (cathepsin L)	inhibition at 10 µM (thrombin; Table II)	inhibition at 10 µM (α-chymotrypsin; Table II)	further results	Structure (SMILES)
278 nM	100%	1%	0%	–	–	–	–	–	–	Calpain % I @ 0.1 uM ([1]; Table III): 17%; Cat B % I @ 1 uM (cathepsin B; Table III): 38%	CS(=O)(=O)N1Cc2ccccc2CC1C(=O)N[C@H](C=O)Cc1ccccc1 (single isomer, unassigned) [Compound 95]
174 nM	–	0%	14%	–	–	–	–	–	–	Calpain % I @ 0.1 uM ([1]; Table III): 49%; Cat B % I @ 1 uM (cathepsin B; Table III): 90%; Cat L % I @ 1 uM (cathepsin L): 100%	CS(=O)(=O)N1Cc2ccccc2CC1C(=O)N[C@H](C=O)Cc1ccccc1 (single isomer, unassigned) [Compound 96]
67 nM	100%	2%	11%	63%	97%	–	–	–	–	–	CS(=O)(=O)NC(CCSCc1ccccc1)C(=O)N[C@H](C=O)Cc1ccccc1 (single isomer, unassigned) [Compound 107]
25 nM	–	0%	0%	–	–	–	–	–	–	Calpain % I @ 0.1 uM ([1]; Table III): 83%; Cat B % I @ 1 uM (cathepsin B; Table III): 96%; Cat L % I @ 1 uM (cathepsin L): 100%	CS(=O)(=O)NC(CCSCc1ccccc1)C(=O)N[C@H](C=O)Cc1ccccc1 (single isomer, unassigned) [Compound 108]
–	–	–	–	–	–	~20000 nM	24000 nM	0%	32%	–	CC(C)(C)OC(=O)N[C@H](CC(=O)N1CCc2ccccc2C1)C(=O)N[C@H](C=O)Cc1ccccc1 [Compound 8, (R)-2-THIQ-C(=O)CH2 CH(NHBoc)C(=O)-Phe--H]
–	–	–	–	–	–	83 nM	2000 nM	0%	2%	IC50 (cathepsin B; Table II): 11000 nM	CC(=O)N[C@H](CC(=O)N1CCc2ccccc2C1)C(=O)N[C@H](C=O)Cc1ccccc1 [Compound 9, 2-THIQ-C(=O)CH2 CH(NHC(=O)CH3)C(=O)-Phe--H]
–	–	–	–	–	–	20 nM	56 nM	0%	11%	IC50 (cathepsin B; Table II): 145 nM	CS(=O)(=O)N[C@H](CC(=O)N1CCc2ccccc2C1)C(=O)N[C@H](C=O)Cc1ccccc1 [Compound 14, 2-THIQ-C(=O)CH2 CH(NHS(=O)2 CH3)C(=O)-Phe--H]
–	–	–	–	–	–	26 nM	48 nM	0%	3%	IC50 (cathepsin B; Table II): 5000 nM	CC(=O)N[C@H](CSCc1ccccc1)C(=O)N[C@H](C=O)Cc1ccccc1 [Compound 25, BnS--CH2 CH(NHC(=O)CH3)C(=O)-Phe--H] (Ac-[dC](Bn)-Phe-aldehyde)
50 nM	100%	–	–	67%	42%	–	–	–	–	inhibition at 10 µM (thrombin; Table III): 2%; inhibition at 10 µM (α-chymotrypsin; Table III): 0%	CC[C@@H](C=O)NC(=O)[C@@H](COCc1ccccc1)NS(C)(=O)=O [Compound 41] (Ms-[dS](Bn)-[Abu]-aldehyde)
17 nM	96%	–	–	87%	90%	–	–	–	–	inhibition at 10 µM (thrombin; Table III): 7%; inhibition at 10 µM (α-chymotrypsin; Table III): 14%	CC(=O)N[C@H](COCc1ccccc1)C(=O)N[C@H](C=O)Cc1ccccc1 [Compound 42]
12 nM	68%	–	–	95%	98%	–	–	–	–	IC50 (cathepsin B; Table III): 58 nM; inhibition at 10 µM (thrombin; Table III): 0%; inhibition at 10 µM (α-chymotrypsin; Table III): 3%	C[C@H](OCc1ccccc1)[C@@H](NS(C)(=O)=O)C(=O)N[C@H](C=O)Cc1ccccc1 [Compound 43] (Ms-[dT](Bn)-Phe-aldehyde)
